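Following 48 hours of exposure in 96-well plates, responses at five concentrations were used to interpolate endpoints linearly. Here, GI50 denotes the concentration required for 50% inhibition of growth. TGI marks complete inhibition of growth.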 Bounds are passed on as bounds.

For one experiment, the system named is NCI-H226 lung. The experiment can be described thus: DTP human tumour cell line panel, 48 h.
For orientation: GI50 means the concentration at which growth is held to half of that of the control. What is called TGI is the concentration giving total growth inhibition. Higher therefore signals lower sensitivity of the cells. For `COCCOc1cnc2ccn([C@H](C)c3nnc4c(F)cc(-c5cnn(C)c5)cn34)c(=O)c2c1`, the GI50 was more than 100 µM and the TGI was more than 100 µM.
`CC(C)CNC(=O)O` gave a concentration for total growth inhibition (TGI) of more than 100 µM.
As to `C[C@]12CC[C@@H]3c4ccc(O)cc4CC[C@H]3[C@@H]1CC[C@@H]2NS(=O)(=O)c1cccc(F)c1`, the GI50 was 3.72 µM and the TGI stood at 16.7 µM.
The like results for `CCC(C)(C)c1ccc(OCCCCCCN2CCNCC2)cc1` were, in that order, 3.87 µM and 18 µM.
The like results for `Cc1cc(S(=O)(=O)N/N=C(\Sc2cc(Cl)c(C)cc2S(N)(=O)=O)c2ccc(Cl)cc2)c(Cl)cc1Cl` were, in that order, 58.3 µM and more than 100 µM.
Turning to `C1C[OH+]CCNCC[OH+]CC[OH+]CCN1.[Cl-].[Pt+4]`, the GI50 was more than 100 µM and the TGI was more than 100 µM.
With `COc1ccc(C(=O)COc2cccc(/C=C3\Oc4ccc5ccccc5c4C3=O)c2)cc1`, the GI50 is 6.58 µM and the TGI is 22.4 µM.
The like results for `COc1ccc(-c2oc3cc(O)c(OC)c(O)c3c(=O)c2OC)cc1O` were, in that order, 2.5 µM and more than 100 µM.
Regarding `Cc1c(C2=C(Br)C(=O)N(C)C2=O)c(=O)n(C)c(=O)n1C`, the TGI is more than 100 µM.
Compound `N#CC(=NCCO)C1=C(O)c2ccccc2C1=O` gave a TGI of more than 100 µM.
For `NC(CS/C(Cl)=C/Cl)C(=O)O` (stereo unspecified), the GI50 was more than 100 µM and the TGI was more than 100 µM.
The compound `Cc1ccc(C2(O)CC(c3ccc([N+](=O)[O-])o3)=NN2C(=O)COc2ccc(Cl)cc2)cc1` (stereo unspecified) displayed a TGI of 39.7 µM.
Turning to `Cc1cc(N/N=C/c2nc(-c3ccc(Br)cc3)oc2C)c2cc(Br)ccc2n1`, the GI50 is 17.9 µM and the TGI was 48.5 µM.
The like results for `COc1ccc2c(O)cc3c(c2c1)[C@H](CCl)CN3C(=O)c1cc2cc(NC(=O)CCN3CCOCC3)ccc2[se]1` were, in that order, less than 0.001 µM and 0.00163 µM.
`COc1cc2c(cc1O)C1Cc3ccc(OC)c(O)c3C(C2)N1C` (stereo unspecified) gave a TGI of more than 100 µM.

The test system of the next experiment is RPMI-8226 leukemia. The experiment in a line: DTP human tumour cell line panel, 48 h.
For the compound `Nc1nc(SN=Nc2ccc(S(N)(=O)=O)cc2)c2[nH]cnc2n1`, the GI50 was 0.283 µM and the TGI was 3.33 µM.
In the case of `CN(CCCNC(=O)Cc1ccc2ccc3cccc4ccc1c2c34)CCCNc1cc(-c2ccc3ccccc3c2)nc2ccccc12`, the GI50 is 1.22 µM and the TGI came out at 4.11 µM.
The like results for `COCCOc1cnc2ccn([C@H](C)c3nnc4c(F)cc(-c5cnn(C)c5)cn34)c(=O)c2c1` were, in that order, more than 100 µM and more than 100 µM.
In the case of `CC(C)CNC(=O)O`, the TGI was more than 100 µM.
`C[C@]12CC[C@@H]3c4ccc(O)cc4CC[C@H]3[C@@H]1CC[C@@H]2NS(=O)(=O)c1cccc(F)c1`: the GI50 was 3.65 µM and the TGI is 19.6 µM.
The like results for `CCC(C)(C)c1ccc(OCCCCCCN2CCNCC2)cc1` were, in that order, 1.9 µM and 4.41 µM.
The like results for `Cc1cc(S(=O)(=O)N/N=C(\Sc2cc(Cl)c(C)cc2S(N)(=O)=O)c2ccc(Cl)cc2)c(Cl)cc1Cl` were, in that order, 27.3 µM and 86.4 µM.
The like results for `C1C[OH+]CCNCC[OH+]CC[OH+]CCN1.[Cl-].[Pt+4]` were, in that order, more than 100 µM and more than 100 µM.
Turning to `COc1ccc(C(=O)COc2cccc(/C=C3\Oc4ccc5ccccc5c4C3=O)c2)cc1`, the GI50 was 0.345 µM and the TGI came out at 2.01 µM.
For the compound `COc1ccc(-c2oc3cc(O)c(OC)c(O)c3c(=O)c2OC)cc1O`, the GI50 was 0.417 µM and the TGI was more than 100 µM.
Consider `Cc1c(C2=C(Br)C(=O)N(C)C2=O)c(=O)n(C)c(=O)n1C`, for which the TGI turned out to be 46.3 µM.
On the same count and under the same terms, the figure for `N#CC(=NCCO)C1=C(O)c2ccccc2C1=O` is more than 100 µM.
As to `NC(CS/C(Cl)=C/Cl)C(=O)O` (stereo unspecified), the GI50 is 12.5 µM and the TGI was determined as 74.5 µM.
Regarding `Cc1ccc(C2(O)CC(c3ccc([N+](=O)[O-])o3)=NN2C(=O)COc2ccc(Cl)cc2)cc1` (stereo unspecified), the TGI is more than 21.2 µM.
On to `Cc1cc(N/N=C/c2nc(-c3ccc(Br)cc3)oc2C)c2cc(Br)ccc2n1`, for which the GI50 was 2.37 µM and the TGI worked out at 6.39 µM.
The like results for `COc1ccc2c(O)cc3c(c2c1)[C@H](CCl)CN3C(=O)c1cc2cc(NC(=O)CCN3CCOCC3)ccc2[se]1` were, in that order, 0.00149 µM and 0.0263 µM.
In the case of `COc1cc2c(cc1O)C1Cc3ccc(OC)c(O)c3C(C2)N1C` (stereo unspecified), the TGI is more than 100 µM.

A further experiment concerns SF-539 CNS. The experiment can be described thus: DTP human tumour cell line panel, 48 h.
With `Nc1nc(SN=Nc2ccc(S(N)(=O)=O)cc2)c2[nH]cnc2n1`, the GI50 is 0.552 µM and the TGI is more than 100 µM.
The like results for `CN(CCCNC(=O)Cc1ccc2ccc3cccc4ccc1c2c34)CCCNc1cc(-c2ccc3ccccc3c2)nc2ccccc12` were, in that order, 1.54 µM and 2.98 µM.
The like results for `COCCOc1cnc2ccn([C@H](C)c3nnc4c(F)cc(-c5cnn(C)c5)cn34)c(=O)c2c1` were, in that order, more than 100 µM and more than 100 µM.
In the case of `CC(C)CNC(=O)O`, the TGI was more than 100 µM.
With `C[C@]12CC[C@@H]3c4ccc(O)cc4CC[C@H]3[C@@H]1CC[C@@H]2NS(=O)(=O)c1cccc(F)c1`, the GI50 is 3.91 µM and the TGI was found to be 14.1 µM.
Turning to `CCC(C)(C)c1ccc(OCCCCCCN2CCNCC2)cc1`, the GI50 was 1.85 µM and the TGI is 3.65 µM.
The like results for `Cc1cc(S(=O)(=O)N/N=C(\Sc2cc(Cl)c(C)cc2S(N)(=O)=O)c2ccc(Cl)cc2)c(Cl)cc1Cl` were, in that order, 28.6 µM and 61.5 µM.
The like results for `C1C[OH+]CCNCC[OH+]CC[OH+]CCN1.[Cl-].[Pt+4]` were, in that order, more than 100 µM and more than 100 µM.
The like results for `COc1ccc(C(=O)COc2cccc(/C=C3\Oc4ccc5ccccc5c4C3=O)c2)cc1` were, in that order, 13.4 µM and 26.3 µM.
